Experimental data reported in patent US20220056014A1, “PHENYLPYRROLIDINE COMPOUND AND USE THEREOF” (WUHAN HUMANWELL INNOVATIVE DRUG RESEARCH AND DEVELOPMENT …, priority 2018, published 2022).
Read-outs that look alike come from different tables or passages of the source.

Assays:
[1] = target: T1, PDE4D (Homo sapiens, UniProt Q08499); experiment: PDE4D enzyme activity assay (PDE-Glo Phosphodiesterase Assay Kit); format: biochemical
T1 construct: purchased Enzo Life Sciences BML-SE523-0020
Method: (§1) For the previously synthesized compounds, the inhibitory activity of the compounds against PDE4B and against PDE4D was tested by using PDE-Glo Phosphodiesterase Assay Kit (promega, V1361). In short, in accordance with the instructions of the kit, a concentrated stock solution (10 mM) the compound to be tested was first prepared with DMSO solvent, and the concentrated stock solution was then diluted into 10× working solutions with a Reaction buffer provided in the kit. With the Reaction buffer, on ice, PDE4B enzyme (Enzo Life Sciences, BML-SE522-0020) was diluted to a concentration of 1 ng/μl to obtain a PDE4B enzyme working solution, and PDE4D enzyme (Enzo Life Sciences, BML-SE523-0020) was diluted to a concentration of 4 ng/μl to obtain a PDE4D enzyme working solution. 1.5 μl of the PDE4B working solution (or PDE4D working solution) and 1 μl of the compound working solution were added to wells of 384-well plate (Corning, CLS3707), and incubated with shaking at room temperature for 5 min, followed by adding 2.5 μl of cAMP (in Reaction buffer, 2 μM) per well, incubating with shaking at room temperature for 20 min. 2.5 μl/well of 1× Termination Buffer, and then 2.5 μl/well of 1× Detection Buffer were added, and further incubated with shaking at room temperature for 20 min. 10 μl/well of 1× Kinase-Glo was added, and the plate was incubated with shaking at room temperature for 10 min, and bioluminescence was measured with PheraStar instrument. The experimental results were plotted with GraphPad Prism software, and fitted to calculate IC50 of each compound.

[2] = system: LPS-induced secretion of TNFα in human PBMCs; experiment: LPS-induced secretion of TNFα in human PBMCs; format: cell-based; conditions: Homo sapiens, PBMC, 24 h, LPS 10 ng/ml
Method: Extraction process of peripheral blood mononuclear cells (PBMCs): one unit of human peripheral blood concentrate (concentrated from 200 cc peripheral blood) was sucked and added with 0.9% saline until a total volume reached 120 ml, and mixed homogenously. 15 ml Lymphoprep™ was added into 50 ml centrifuge tube, and then 30 ml of diluted blood concentrate was carefully and slowly added thereto, allowing the diluted blood to be stacked on the layered solution and preventing the diluted blood from being mixed into the separated solutions or breaking the surface of the separated solution, wherein a ratio of Lymphoprep™ to the diluted blood was 1:2. The centrifuge tubes were balanced and placed in a horizontal centrifuge (eppendorf, 5810R), and centrifuged at 800 g and 20° C. for 20 min. The centrifuge tubes were carefully taken out. PBMCs were absorbed by directly inserting the Pasteur pipette deep into the buffy coat. The obtained PBMCs were gently pipetted with 3 times the volume of 0.9% normal saline or PBS (without calcium or magnesium ions) to mix homogenously. After that, the cells were centrifuged at 250 g and 20° C. for 10 min, the supernatant was removed to remove the platelets remaining in the cell suspension. The obtained cell pellet was resuspended in 20 ml of PBS, and counted using trypan blue.
Compound screening by using PBMCs: the PBMC suspension obtained above was centrifuged to remove PBS, then resuspended in complete medium (RPMI1640+10% FBS+1% P/S) and counted. 100 μL/well of the cells was seeded at 5×10^4/well. Each of the compounds to be screened was prepared as 4 times the final concentration, which was added to the cells at 50 μL/well. The compound was pre-incubated for 30 min in advance of being added to the cells. Meanwhile, control wells to which the compound was not added were provided. A final stimulation concentration of LPS was 10 ng/ml, and LPS was formulated as 4 times the final stimulation concentration, and added to the cells at 50 μL/well. Meanwhile, control wells, i.e., wells without LPS were provided. The cells were incubated for 24 h, and 10% of the supernatant was collected for detection. The obtained supernatant was detected using Invitrogen's Human TNF-α kit (REF: 88-7346-88).

[3] = system: LPS-stimulated TNF-α release; experiment: LPS-stimulated TNF-α release in mice; format: in vivo, Balb/c mice; conditions: Mus musculus, oral 50 mg/kg (positive control 100 mg/kg), 1 mg/kg LPS i.p.
Method: 18 Balb/c mice (6 to 8 weeks) were randomly assigned to a blank group, a model group, and an administration group, 6 mice in each group. A vehicle (blank group, model group) or 50 mg/kg compound (administration group, where the dose for the positive control group was 100 mg/kg) was orally administrated. 30 min after the oral administration, PBS (blank group) or 1 mg/kg LPS (model group and administration group) was injected intraperitoneally. 90 min or 120 min after the intraperitoneal injection, blood was collected from the hearts of the mice, and still stood at 2-8° C. for 4 hours, and centrifuged at 5000 rpm for 10 min to collect the serum. The serum was stored at −80° C. for testing.
The serum TNF-α level was tested using a mouse TNF-α detection kit (Mouse TNFa ELISA kit: Biolegend, Cat: 430904). The inhibitory activity of the compounds against the TNF-α release was calculated based on the serum TNF-α level.
Inhibitory activity of compound %={1−(TNFα concentration of administration group−TNFα concentration of blank group)/(TNFα concentration of model group−TNFα concentration of blank group)}×100%.

[4] = target: T2, PDE4B (Homo sapiens, UniProt Q07343); experiment: PDE4B enzyme activity assay (PDE-Glo Phosphodiesterase Assay Kit); format: biochemical; conditions: for IC50 (PDE4D)/IC50 (PDE4B): selectivity ratio
T2 construct: purchased Enzo Life Sciences BML-SE522-0020
T2 sequence (Q07343 whole entry): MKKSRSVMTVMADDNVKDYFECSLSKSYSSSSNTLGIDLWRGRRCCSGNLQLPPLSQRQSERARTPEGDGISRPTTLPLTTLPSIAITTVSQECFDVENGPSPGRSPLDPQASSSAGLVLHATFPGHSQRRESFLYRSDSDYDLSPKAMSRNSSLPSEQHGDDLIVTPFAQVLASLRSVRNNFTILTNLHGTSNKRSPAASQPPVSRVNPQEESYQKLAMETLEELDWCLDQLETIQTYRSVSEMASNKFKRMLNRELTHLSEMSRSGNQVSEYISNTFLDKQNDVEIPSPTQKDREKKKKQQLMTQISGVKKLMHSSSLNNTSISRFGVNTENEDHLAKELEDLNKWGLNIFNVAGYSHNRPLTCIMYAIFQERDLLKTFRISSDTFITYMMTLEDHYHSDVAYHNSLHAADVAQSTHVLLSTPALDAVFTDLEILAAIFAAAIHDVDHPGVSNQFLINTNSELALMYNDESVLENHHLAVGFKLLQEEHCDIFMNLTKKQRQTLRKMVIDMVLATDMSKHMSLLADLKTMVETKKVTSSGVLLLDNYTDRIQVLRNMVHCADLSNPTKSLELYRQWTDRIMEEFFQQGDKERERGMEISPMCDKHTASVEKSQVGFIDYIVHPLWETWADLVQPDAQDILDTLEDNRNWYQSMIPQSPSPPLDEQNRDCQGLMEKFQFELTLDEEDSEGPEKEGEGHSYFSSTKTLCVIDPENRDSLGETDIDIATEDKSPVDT
Method: as §1

[5] = 1.5 h, blood 90 min after LPS, read-out: Inhibition rate (%) of LPS-stimulated TNF-α release, 90 min
[6] = 2 h, blood 120 min after LPS, read-out: Inhibition rate (%) of LPS-stimulated TNF-α release, 120 min

T1 sequence (Q08499 whole entry): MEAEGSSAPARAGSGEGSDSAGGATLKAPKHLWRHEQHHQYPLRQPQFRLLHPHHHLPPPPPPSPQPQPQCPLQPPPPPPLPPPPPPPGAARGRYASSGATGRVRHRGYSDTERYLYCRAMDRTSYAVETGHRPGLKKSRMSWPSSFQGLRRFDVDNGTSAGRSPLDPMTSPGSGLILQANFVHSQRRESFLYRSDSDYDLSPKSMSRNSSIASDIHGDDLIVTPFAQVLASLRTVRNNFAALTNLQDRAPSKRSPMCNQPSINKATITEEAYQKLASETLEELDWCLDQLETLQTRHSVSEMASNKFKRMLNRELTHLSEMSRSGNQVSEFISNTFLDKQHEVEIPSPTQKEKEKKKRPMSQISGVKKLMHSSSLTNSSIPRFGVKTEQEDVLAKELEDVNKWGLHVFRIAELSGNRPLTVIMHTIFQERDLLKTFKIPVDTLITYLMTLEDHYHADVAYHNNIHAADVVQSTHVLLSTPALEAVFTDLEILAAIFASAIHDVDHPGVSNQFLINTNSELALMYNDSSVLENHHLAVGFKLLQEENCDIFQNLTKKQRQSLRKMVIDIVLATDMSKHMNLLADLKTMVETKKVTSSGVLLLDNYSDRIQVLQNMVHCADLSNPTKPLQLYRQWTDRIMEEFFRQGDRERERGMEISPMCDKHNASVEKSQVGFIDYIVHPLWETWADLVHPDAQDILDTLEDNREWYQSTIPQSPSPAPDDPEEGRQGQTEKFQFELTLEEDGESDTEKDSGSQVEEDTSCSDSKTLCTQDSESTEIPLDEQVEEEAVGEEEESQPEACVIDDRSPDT

COc1ccc([C@@H]2CN(C(=O)[C@@H](O)CO)C[C@@]2(C)[C@@H](C)O)cc1OC1CN(c2ccc(CC(F)(F)F)cn2)C1 [Compound 033, (S)-2,3-dihydroxy-1-((3S,4S)-3-((R)-1-hydroxyethyl)-4-(4-methoxy-3-((1-(5-(2,2,2-trifluoroethyl)pyridin-2-yl)azetidin-3-yl)oxy)phenyl)-3-methylpyrrolidin-1-yl)propan-1-one]
IC50 [1]: 2.81 nM | IC50 [2]: 0.53 nM | inhibition in vivo at 50 mg/kg [3, 5]: 70.3% | inhibition in vivo at 50 mg/kg [3, 6]: 75.9% | IC50 [4]: 0.22 nM | IC50 (PDE4D)/IC50 (PDE4B) [4]: 12.8

COc1ccc([C@@H]2CN(C(=O)[C@@H](O)CO)C[C@@]2(C)[C@@H](C)O)cc1OC1CN(c2ncc(F)cc2Cl)C1 [Compound 014, (S)-1-((3S,4S)-4-(3-((1-(3-chloro-5-fluoropyridin-2-yl)azetidin-3-yl)oxy)-4-methoxyphenyl)-3-((R)-1-hydroxyethyl)-3-methylpyrrolidin-1-yl)-2,3-dihydroxypropan-1-one]
IC50 [1]: 6.02 nM | IC50 [2]: 15.1 nM | IC50 [4]: 6.65 nM | IC50 (PDE4D)/IC50 (PDE4B) [4]: 0.91

COc1ccc([C@@H]2CN(C(=O)[C@@H](O)CO)C[C@@]2(C)[C@@H](C)O)cc1OC1CN(c2ncc(C)cc2C)C1 [Compound 021, (S)-1-((3S,4S)-4-(3-((1-(3,5-dimethylpyridin-2-yl)azetidin-3-yl)oxy)-4-methoxyphenyl)-3-((R)-1-hydroxyethyl)-3-methylpyrrolidin-1-yl)-2,3-dihydroxypropan-1-one]
IC50 [1]: 14.9 nM | IC50 [2]: 14.1 nM | IC50 [4]: 4.15 nM | IC50 (PDE4D)/IC50 (PDE4B) [4]: 3.59

COc1ccc([C@@H]2CN(C(=O)[C@@H](O)CO)C[C@@]2(C)[C@@H](C)O)cc1OC1CN(c2ccc(C3CC3)cn2)C1 [Compound 034, (S)-1-((3S,4S)-4-(3-((1-(5-cyclopropylpyridin-2-yl)azetidin-3-yl)oxy)-4-methoxyphenyl)-3-((R)-1-hydroxyethyl)-3-methylpyrrolidin-1-yl)-2,3-dihydroxypropan-1-one]
IC50 [1]: 2.96 nM | IC50 [2]: 0.32 nM | inhibition in vivo at 50 mg/kg [3, 5]: 76.4% | inhibition in vivo at 50 mg/kg [3, 6]: 85.6% | IC50 [4]: 0.25 nM | IC50 (PDE4D)/IC50 (PDE4B) [4]: 11.8

COc1ccc([C@@H]2CN(C(=O)[C@@H](O)CO)C[C@@]2(C)[C@@H](C)O)cc1OC1CN(c2cc(C)c(F)cn2)C1 [Compound 025, (S)-1-((3S,4S)-4-(3-((1-(5-fluoro-4-methylpyridin-2-yl)azetidin-3-yl)oxy)-4-methoxyphenyl)-3-((R)-1-hydroxyethyl)-3-methylpyrrolidin-1-yl)-2,3-dihydroxypropan-1-one]
IC50 [1]: 2.16 nM | IC50 [2]: 3.26 nM | IC50 [4]: 0.88 nM | IC50 (PDE4D)/IC50 (PDE4B) [4]: 2.45

COc1ccc([C@@H]2CN(C(=O)[C@@H](O)CO)C[C@@]2(C)[C@@H](C)O)cc1OC1CN(c2ccc(OC(C)C)cn2)C1 [Compound 028, (S)-2,3-dihydroxy-1-((3S,4S)-3-((R)-1-hydroxyethyl)-4-(3-((1-(5-isopropoxypyridin-2-yl)azetidin-3-yl)oxy)-4-methoxyphenyl)-3-methylpyrrolidin-1-yl)propan-1-one]
IC50 [1]: 3.08 nM | IC50 [2]: 2.94 nM | IC50 [4]: 2.22 nM | IC50 (PDE4D)/IC50 (PDE4B) [4]: 1.39

COc1ccc([C@@H]2CN(C(=O)[C@@H](O)CO)C[C@@]2(C)[C@@H](C)O)cc1OC1CN(c2ccc(C)c(C#N)n2)C1 [Compound 003, 6-(3-(5-((3S,4S)-1-((S)-2,3-dihydroxypropanoyl)-4-((R)-1-hydroxyethyl)-4-methylpyrrolidin-3-yl)-2-methoxyphenoxy)azetidin-1-yl)-3-methylpicolinonitrile]
IC50 [1]: 0.39 nM | IC50 [2]: 1.48 nM | IC50 [4]: 0.41 nM | IC50 (PDE4D)/IC50 (PDE4B) [4]: 0.95

COc1ccc([C@@H]2CN(C(=O)[C@@H](O)CO)C[C@@]2(C)[C@@H](C)O)cc1OC1CN(c2ccc(C(C)C)cn2)C1 [Compound 032, (S)-2,3-dihydroxy-1-((3S,4S)-3-((R)-1-hydroxyethyl)-4-(3-((1-(5-isopropylpyridin-2-yl)azetidin-3-yl)oxy)-4-methoxyphenyl)-3-methylpyrrolidin-1-yl)propan-1-one]
IC50 [1]: 3.25 nM | IC50 [2]: 0.26 nM | inhibition in vivo at 50 mg/kg [3, 5]: 75.8% | inhibition in vivo at 50 mg/kg [3, 6]: 84% | IC50 [4]: 0.33 nM | IC50 (PDE4D)/IC50 (PDE4B) [4]: 9.85

COc1ccc([C@@H]2CN(C(=O)[C@@H](O)CO)C[C@@]2(C)[C@@H](C)O)cc1OC1CN(c2ncc(Cl)cc2F)C1 [Compound 009, (S)-1-((3S,4S)-4-(3-((1-(5-chloro-3-fluoropyridin-2-yl)azetidin-3-yl)oxy)-4-methoxyphenyl)-3-((R)-1-hydroxyethyl)-3-methylpyrrolidin-1-yl)-2,3-dihydroxypropan-1-one]
IC50 [1]: 4.67 nM | IC50 [2]: 7.57 nM | inhibition in vivo at 50 mg/kg [3, 6]: 47.6% | IC50 [4]: 0.78 nM | IC50 (PDE4D)/IC50 (PDE4B) [4]: 5.99

COc1ccc([C@@H]2CN(C(=O)[C@@H](O)CO)C[C@@]2(C)[C@@H](C)O)cc1OC1CN(c2ncc(C)cc2C#N)C1 [Compound 006, 2-(3-(5-((3S,4S)-1-((S)-2,3-dihydroxypropanoyl)-4-((R)-1-hydroxyethyl)-4-methylpyrrolidin-3-yl)-2-methoxyphenoxy)azetidin-1-yl)-5-methylnicotinonitrile]
IC50 [1]: 1.34 nM | IC50 [2]: 2.52 nM | IC50 [4]: 1.37 nM | IC50 (PDE4D)/IC50 (PDE4B) [4]: 0.98

COc1ccc([C@@H]2CN(C(=O)[C@@H](O)CO)C[C@@]2(C)[C@@H](C)O)cc1OC1CN(c2cc(C)c(C#N)cn2)C1 [Compound 012, 6-(3-(5-((3S,4S)-1-((S)-2,3-dihydroxypropanoyl)-4-((R)-1-hydroxyethyl)-4-methylpyrrolidin-3-yl)-2-methoxyphenoxy)azetidin-1-yl)-4-methylnicotinonitrile]
IC50 [1]: 0.56 nM | IC50 [2]: 2.52 nM | IC50 [4]: 2.09 nM | IC50 (PDE4D)/IC50 (PDE4B) [4]: 0.27
